Peptide text beside a SMILES is read from it.
Assays:
DHBV core gene RNA = test: Filter-binding assay of peptides, DHBV core gene RNA; design: species or system Duck hepatitis B virus; conditions: 32P-labeled DHBV core gene RNA
[1] = test system: double-stranded DNA fragment; test: Filter-binding assay of peptides, double-stranded DNA; conditions: 32P-labeled double-stranded DNA fragment
ε RNA = test: Filter-binding assay of peptides, ε RNA; design: species or system Duck hepatitis B virus; conditions: peptide 10 pMol to 0.3 pMol on filter; 32P-labeled ε RNA

CC[C@H](C)[C@H](NC(=O)[C@H](CCCNC(=N)N)NC(=O)[C@H](CC(N)=O)NC(=O)[C@@H]1CCCN1C(=O)[C@H](Cc1c[nH]c2ccccc12)NC(=O)[C@@H](N)CO)C(=O)N[C@H](C(=O)NCC(=O)N[C@@H](CCCCN)C(=O)N[C@@H](CC(C)C)C(=O)N[C@@H](Cc1ccccc1)C(=O)N[C@@H](CC(C)C)C(=O)N[C@H](C(=O)N[C@@H](CC(=O)O)C(=O)N[C@@H](CCCCN)C(=O)N[C@@H](CC(N)=O)C(=O)N[C@@H](CO)C(=O)N[C@@H](CCCNC(=N)N)C(=O)N[C@@H](CC(N)=O)C(=O)N[C@H](C(=O)N[C@@H](CCC(=O)O)C(=O)N[C@@H](CCC(=O)O)C(=O)N[C@@H](C)C(=O)N[C@@H](CCCNC(=N)N)C(=O)N[C@@H](CC(C)C)C(=O)N[C@H](C(=O)N[C@H](C(=O)N[C@@H](CC(=O)O)C(=O)N[C@@H](Cc1ccccc1)C(=O)N[C@@H](CO)C(=O)N[C@@H](CCC(N)=O)C(=O)N[C@@H](Cc1ccccc1)C(=O)N[C@@H](CO)C(=O)N[C@@H](CCCCN)C(=O)NCC(=O)N[C@@H](CCCCN)C(=O)O)C(C)C)C(C)C)[C@@H](C)O)C(C)C)[C@@H](C)O [RT1C] (H-SWPNRITGKLFLVDKNSRNTEEARLVVDFSQFSKGK-OH; N-terminus and C-terminus assumed)
Binding to irrelevant DHBV core gene RNA (DHBV core gene RNA): able to bind to an irrelevant RNA derived from the DHBV core gene
Binding to double-stranded DNA [1]: able to bind to an irrelevant RNA derived from the DHBV core gene and to a double-stranded DNA fragment
RNA binding to ε, relative (peptide titration) (ε RNA): bound RNA less well than the T3B peptide

Reference: PMC2737686 (Virology, 2009)
